Experimental data: patent US20190388459A1, “NEW THERAPEUTIC USES” (ATLANTIC PHARMACEUTICALS (HOLDINGS) LTD, priority 2017, published 2019)
Marks after values point to notes of the source that are not given here.

Key:
[1] = test system: OVA-induced allergic asthma mouse model; test: Ovalbumin-induced murine model of allergic asthma, BALF analysis; type: in vivo, Balb/c mice; conditions: Day 28, alicaforsen 1 mM IN 30 μl, dexamethasone 10 mg/kg IP, days 14, 25-27
Protocol: Allergic asthma was modeled in female BALB/c mice by initial sensitization to OVA followed by subsequent intranasal challenge of purified OVA.
Mice were monitored throughout the study for changes in body weight and general signs of sickness. Allergic response to OVA was measured by examining bronchoalveolar lavage fluid (BALF) for inflammatory cell influx and the presence of the inflammatory cytokine IL-13.
On days 0 and 14, each animal was administered an IP injection of 200 μL OVA/Alum emulsion containing 100 μg OVA.
On days 14 and 25-27, each animal was administered an intranasal challenge of 30 μL PBS containing 50 μg OVA.
Treatments were performed on the same days as OVA challenge on Study Days 14 and 25-27 (4 total treatments). Treatments were administered 1 hour following OVA challenge.
10 mg/kg dexamethasone was administered in 200 μL volume/animal (intraperitoneal) on Study Days 14 and 25-27 (4 total treatments).
Bonchoalveolar lavage was performed on euthanised animals. Briefly, an angiocatheter was placed into trachea. 1 mL of PBS was instilled into the lungs and allowed to flow back out into the syringe; the PBS was then instilled and removed again. The resultant Bronchoalveolar lavage fluid (BALF) was centrifuged at 500×g for 5 mins.
The non-cellular portion of the BALF was stored at −80° C. The levels of IL-13 were analyzed by Luminex technology.
The cellular portion of the BALF was used to analyze the cell influx. The total number of leukocytes within the BALF and different cell types present were examined via flow cytometry.
Granulocytes: CD45^+; Non-autofluorescent; Gr-1^+
Eosinophils: CD45^+; Non-autofluorescent; Gr-1^+; Siglec F^+

TLR9 [2] = target: T1, TLR9 (Homo sapiens, UniProt Q9NR96); test: TLR9 activation (agonist) screen, TLR9/NF-kB luciferase reporter HEK 293 cell line; type: cell-based; design: host or cells: HEK 293 (TLR9/NF-kB luciferase reporter line); conditions: up to concentrations as high as 100 uM
T1 sequence (Q9NR96 26-1032): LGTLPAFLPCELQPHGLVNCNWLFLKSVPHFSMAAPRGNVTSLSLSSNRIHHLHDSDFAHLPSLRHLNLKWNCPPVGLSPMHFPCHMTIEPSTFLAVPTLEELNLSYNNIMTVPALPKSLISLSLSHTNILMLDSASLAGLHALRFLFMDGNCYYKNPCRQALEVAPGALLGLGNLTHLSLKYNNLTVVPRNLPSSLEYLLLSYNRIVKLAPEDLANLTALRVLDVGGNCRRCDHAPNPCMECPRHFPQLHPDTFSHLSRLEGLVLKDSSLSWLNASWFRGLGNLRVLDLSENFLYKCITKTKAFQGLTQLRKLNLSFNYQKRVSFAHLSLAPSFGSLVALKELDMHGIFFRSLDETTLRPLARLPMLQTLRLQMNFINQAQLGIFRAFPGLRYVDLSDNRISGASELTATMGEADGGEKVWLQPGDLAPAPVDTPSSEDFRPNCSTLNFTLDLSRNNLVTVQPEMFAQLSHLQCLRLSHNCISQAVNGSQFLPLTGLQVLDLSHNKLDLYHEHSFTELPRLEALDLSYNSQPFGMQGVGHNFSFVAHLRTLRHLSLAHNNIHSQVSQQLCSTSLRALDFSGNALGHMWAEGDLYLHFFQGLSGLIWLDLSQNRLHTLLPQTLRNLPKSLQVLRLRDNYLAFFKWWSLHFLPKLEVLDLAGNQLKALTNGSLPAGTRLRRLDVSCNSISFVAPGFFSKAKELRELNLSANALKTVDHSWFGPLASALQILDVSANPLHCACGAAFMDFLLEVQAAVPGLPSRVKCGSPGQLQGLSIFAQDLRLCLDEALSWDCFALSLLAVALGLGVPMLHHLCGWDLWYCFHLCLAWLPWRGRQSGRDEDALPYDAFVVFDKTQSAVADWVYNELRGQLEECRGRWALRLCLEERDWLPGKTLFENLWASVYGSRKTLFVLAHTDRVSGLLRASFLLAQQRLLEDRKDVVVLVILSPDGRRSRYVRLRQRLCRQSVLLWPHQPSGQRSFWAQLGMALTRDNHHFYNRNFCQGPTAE
Protocol: […] Briefly, the TLR9/NF-kB luciferase reporter HEK 293 cell line (Abeomics, San Diego, Calif.) was plated in 96-well white solid plates at 5×10^4 cells per well for 16 h. […] Luciferase activity was then measured and analyzed.

TLR9 [3] = target: T1, TLR9; test: Inhibition of TLR9-mediated NF-kB induction activated by CpG ODN2006, luciferase reporter HEK 293 cell line; type: cell-based; design: host or cells: HEK 293 (TLR9/NF-kB luciferase reporter line)
Protocol: Briefly, the TLR9/NF-kB luciferase reporter HEK 293 cell line was plated in 96-well white solid plates at 5×10^4 cells per well for 16 h. […] Cells were then treated with 20 ug/ml of CpG ODN2006 to activate TLR9. After 16 h, luciferase activity was measured and analyzed.

dry eye murine model = test: Scopolamine dry eye murine model, corneal fluorescein staining and clinical signs; type: in vivo, Mouse C57BL/6N; conditions: for Corneal fluorescein staining score (mean ± SD): one dose per day, topical both eyes
Protocol: In a model of mice, the application of transdermal scopolamine patches to the mid-tail is used to reduce aqueous tear production and thus mimic lacrimal gland insufficiency. The function of scopolamine is to induce a pharmacologic blockade of cholinergic receptors in the lacrimal gland and therefore to decrease aqueous production. The desiccation is amplified by adding environmental stress. Animals are exposed to a low-humidity environment and constant airflow.
Mice were treated with transdermal scopolamine administration (0.5 mg/72 h; Scopoderm TTS®). The transdermal scopolamine patch was wrapped near the tail base of the mouse, secured with cellophane tape. Patches were reapplied every 48 hours.
Mice were randomized into 4 groups of 10 animals. The study was divided into 2 experimental sets with 5 animals of each group represented.
All test items, control items and comparator item were instilled in both eyes (5 μL per administration), using a micropipette.
Tear production and corneal defects were assessed at baseline, on Days 3, 6 and 10 using phenol red thread (PRT) and corneal fluorescence staining (CFS), respectively, for each animal of the 4 groups.
Each day, the general clinical signs and the appearance of all animals was observed.
At the different time points the measurement was performed before administration on Day 3 and at least one hour after the second treatment for the other days of the study. The eyes of the animals from all groups were examined by slit-lamp observation using blue light after 0.5% fluorescein eye drop instillation (0.5 μL). Punctuate staining was recorded with the standardized National Eye Institute (NEI) grading system giving a 0-3 score to each of the 5 areas in which the corneas were divided.

TLR9 [4] = target: T1, TLR9; test: TLR-9 antagonist activity with E. coli genomic DNA as the activator; type: cell-based
TLR9 [5] = target: T1, TLR9; test: Effect of heat, Na+, Mg++ and spermine pre-treatment on TLR-9 antagonist activity; type: cell-based; conditions: pre-treated with 5 mM spermine, heated to 90° C. and cooled; 1.0 uM ODN2006
Protocol: The samples and conditions of these tests are diagramed in FIG. 9.
One sample remained at room temperature while the remaining samples were heated to 90° C. for 3 min and then allowed to cool to room temperature. The samples were then diluted to the indicated concentrations and incubated with the target cells for 1 hr, prior to the addition of 1.0 uM ODN2006 to stimulate TLR-9.

[6] = Circular Dichroism spectroscopy, thermal stability of secondary structure; type: physicochemical
Source text: SEQ ID NO: 1 was therefore subjected to Circular Dichroism (CD) spectroscopy to gather information about the possible secondary structure. CD of DNA can be utilized to detect all 3 major forms of duplex structure (B, A and Z) and is sensitive to conditions that disrupt the structure such a heating. Of interest was the stability of any secondary structure detected at or above physiologic temperatures.
Additional thermal denaturation of the putative duplex was also studied in the presence of Na^+ at concentrations of 50 mM and 150 mM. Sodium fluoride was used as Cl^− ions interfere with the CD spectra in this UV region.
Additional experiments were conducted to test the influence of Mg^++ and polyamines on the stability of the structure.

Row | Compound | BALF IL-13, Mean [1] | Total CD45 cells in BALF, Mean [1] | Eosinophil (Frequency of CD45+) in BALF, Mean ([1]; in % (unit assumed)) | Granulocyte (Frequency of CD45+) in BALF, Mean ([1]; in % (unit assumed)) | agonist activity at TLR-9 (TLR9 [2]) | TLR-9 antagonism (TLR9 [3]; ODN2006 as activator) | concentration needed for TLR-9 antagonism relative to inhibition of ICAM-1 expression (TLR9 [3]; comparative dose responses, FIG. 3) | tolerability of multiple topical administrations (dry eye murine model; 1 mM and 10 mM, topical ocular) | Corneal fluorescein staining score (mean ± SD) (dry eye murine model; Day 6, 1 mM) | Corneal fluorescein staining score (mean ± SD) (dry eye murine model; Day 6, 10 mM) | Corneal fluorescein staining score (mean ± SD) (dry eye murine model; Day 10, 1 mM, listed as ALICAFORSEN) | Corneal fluorescein staining score (mean ± SD) (dry eye murine model; Day 10, 1 mM, listed as alicaforsen) | Corneal fluorescein staining score (mean ± SD) (dry eye murine model; Day 10, 10 mM, listed as ALICAFORSEN) | Corneal fluorescein staining score (mean ± SD) (dry eye murine model; Day 10, 10 mM, listed as alicaforsen) | antagonism of TLR-9 activation by E. coli genomic DNA (TLR9 [4]) | TLR-9 inhibitory activity of spermine-treated samples (TLR9 [5]) | effect of spermine on secondary structure ([6]; 5 mM spermine in the presence of 50 mM Na+) | structure retained (190 nm peak intensity) ([6]; 50 and 150 mM sodium, 40° C.) | loss of signal strength of 190 nm CD band ([6]; ddH20, heating to 80° C.)
1 | C[C@@H]1C[C@H]2[C@@H]3CCC4=CC(=O)C=C[C@]4(C)[C@@]3(F)[C@@H](O)C[C@]2(C)[C@@]1(O)C(=O)CO [Dexamethasone] | 13.2** pg/ml | 236574 | 46.60** | 51.88** | – | – | – | – | – | – | – | – | – | – | – | – | – | – | –
2 | alicaforsen (GCCCAAGCTGGCATCCGTCA; chemistry not given here; listed as Homo sapiens) [SEQ ID NO: 1] | – | – | – | – | devoid of agonist activity | antagonist of TLR-9 | requires higher concentrations than the inhibition of ICAM-1 expression | clinically well tolerated | 10.5 ± 2.6 | 10.8 ± 2.0 | 9.3 ± 3.1 | lower than the Vehicle group | 9.7 ± 2.2 | lower than the Vehicle group | remained antagonistic to activation of TLR-9 | some activity is still observed | completely abolished the secondary structure | at least 50% | > 85%
